Results published in PMC7914897, “Cytotoxic Potential of a-Azepano- and 3-Amino-3,4-SeCo-Triterpenoids” (International Journal of Molecular Sciences, 2021).
Read-outs that look alike come from different tables or passages of the source.

Key:
HOP-92 (NSC lung cancer) = test system: HOP-92 (NSC lung cancer); set-up: method as in earlier work; conditions: cited from earlier work
HCC-2998 (Colon cancer) = test system: HCC-2998 (Colon cancer); set-up: method as in earlier work; conditions: cited from earlier work
CAKI-1 (Renal cancer) [1] = test system: CAKI-1 (Renal cancer); set-up: method as in earlier work; conditions: cited from earlier work
SF-539 (CNS cancer) = test system: SF-539 (CNS cancer); set-up: method as in earlier work; conditions: cited from earlier work
[2] = test system: NCI-H460 (NSC lung cancer); set-up: method as in earlier work; conditions: cited from earlier work
MDA-MB-435 (Melanoma) = test system: MDA-MB-435 (Melanoma); set-up: method as in earlier work; conditions: cited from earlier work
[3] = test system: NCI-H23 (NSC lung cancer); set-up: method as in earlier work; conditions: cited from earlier work
[4] = test system: NCI-H522 (NSC lung cancer); set-up: method as in earlier work; conditions: cited from earlier work
MCF7 (Breast cancer) = test system: MCF7 (Breast cancer); set-up: method as in earlier work; conditions: cited from earlier work
RPMI-8226 (Leukemia) = test system: RPMI-8226 (Leukemia); set-up: method as in earlier work; conditions: cited from earlier work
MALME-3M (Melanoma) = test system: MALME-3M (Melanoma); set-up: method as in earlier work; conditions: cited from earlier work
SNB-75 (CNS cancer) = test system: SNB-75 (CNS cancer); set-up: method as in earlier work; conditions: cited from earlier work
[5] = test system: panel of approximately 60 cancer cell lines; set-up: method as in earlier work; conditions: standard drugs; read-out: GI50 MG_MID60; cited from earlier work
OVCAR-3 (Ovarian cancer) = test system: OVCAR-3 (Ovarian cancer); set-up: method as in earlier work; conditions: cited from earlier work
[6] = test system: NCI-H226 (NSC lung cancer); set-up: method as in earlier work; conditions: cited from earlier work
HOP-62 (NSC lung cancer) = test system: HOP-62 (NSC lung cancer); set-up: method as in earlier work; conditions: cited from earlier work
[7] = test system: MDA-MB-31/ATCC (Breast cancer); set-up: method as in earlier work; conditions: cited from earlier work
[8] = test system: MDA-MB-468 (Breast cancer); set-up: method as in earlier work; conditions: cited from earlier work
CNS cancer subpanel = test system: CNS cancer subpanel; set-up: method as in earlier work; conditions: standard drugs, read-out: GI50 MG_MID; cited from earlier work
[9] = test system: A549/ATCC (NSC lung cancer); set-up: method as in earlier work; conditions: cited from earlier work
ACHN (Renal cancer) = test system: ACHN (Renal cancer); set-up: method as in earlier work; conditions: cited from earlier work
LOX IMVI (Melanoma) = test system: LOX IMVI (Melanoma); set-up: method as in earlier work; conditions: cited from earlier work
SF-268 (CNS cancer) = test system: SF-268 (CNS cancer); set-up: method as in earlier work; conditions: cited from earlier work
SF-295 (CNS cancer) = test system: SF-295 (CNS cancer); set-up: method as in earlier work; conditions: cited from earlier work
A498 (Renal cancer) = test system: A498 (Renal cancer); set-up: method as in earlier work; conditions: cited from earlier work
SR (Leukemia) = test system: SR (Leukemia); set-up: method as in earlier work; conditions: cited from earlier work
RXF 393 (Renal cancer) = test system: RXF 393 (Renal cancer); set-up: method as in earlier work; conditions: cited from earlier work
U251 (CNS cancer) = test system: U251 (CNS cancer); set-up: method as in earlier work; conditions: cited from earlier work
OVCAR-8 (Ovarian cancer) = test system: OVCAR-8 (Ovarian cancer); set-up: method as in earlier work; conditions: cited from earlier work
EKVX (NSC lung cancer) = test system: EKVX (NSC lung cancer); set-up: method as in earlier work; conditions: cited from earlier work
SN12C (Renal cancer) = test system: SN12C (Renal cancer); set-up: method as in earlier work; conditions: cited from earlier work
CCRF-CEM (Leukemia) = test system: CCRF-CEM (Leukemia); set-up: method as in earlier work; conditions: cited from earlier work
SK-MEL-5 (Melanoma) = test system: SK-MEL-5 (Melanoma); set-up: method as in earlier work; conditions: cited from earlier work
SW-620 (Colon cancer) = test system: SW-620 (Colon cancer); set-up: method as in earlier work; conditions: cited from earlier work
T-47D (Breast cancer) = test system: T-47D (Breast cancer); set-up: method as in earlier work; conditions: cited from earlier work
SNB-19 (CNS cancer) = test system: SNB-19 (CNS cancer); set-up: method as in earlier work; conditions: cited from earlier work
Leukemia subpanel = test system: Leukemia subpanel; set-up: method as in earlier work; conditions: standard drugs, read-out: GI50 MG_MID; cited from earlier work
HCT-116 (Colon cancer) = test system: HCT-116 (Colon cancer); set-up: method as in earlier work; conditions: cited from earlier work
MOLT-4 (Leukemia) = test system: MOLT-4 (Leukemia); set-up: method as in earlier work; conditions: cited from earlier work
[10] = test system: NIH 3T3 (non-malignant mouse fibroblasts); experiment: SRB cytotoxicity assay, 72 h; format: cell-based; conditions: Mus musculus, NIH3T3; NIH 3T3, 72 h, cut-off 30 µM; read-out: EC50
Protocol: (§1) The cytotoxicity of compounds 1–20 was evaluated by means of a colorimetric sulforhodamine B (SRB) assay. For all compounds, the EC50 values were determined for the human tumor cell lines A375 (malignant melanoma), HT29 (colorectal carcinoma), MCF-7 (breast carcinoma), A2780 (ovarian carcinoma), FaDu (hypopharyngeal carcinoma), and NIH 3T3 (non-malignant mouse fibroblasts).
(§2) In short, exponentially growing cells were seeded into 96-well plates on day 0 at the appropriate cell densities to prevent confluence of the cells during the period of experiment. After 24 h, the cells were treated with serial dilutions of the compounds (0–30 µM) for 72 h. The final concentration of DMSO never exceeded 0.5%, which was non-toxic to the cells. After a 72 h treatment, the supernatant medium from the 96-well plates was discarded, and the cells were fixed with 10% TCA. For a thorough fixation, the plates were allowed to rest at 4 °C. After fixation, the cells were washed in a strip washer. The washing was done four times with water using alternate dispensing and aspiration procedures. The plates were then dyed with 100 µL of 0.4% SRB for about 20 min. After dying, the plates were washed with 1% acetic acid to remove the excess of the dye and allowed to air-dry overnight. Tris base solution (200 µL, 10 mM) was added to each well and absorbance was measured at λ = 570 nm (using a 96 well plate reader, Tecan Spectra, Crailsheim, Germany). The percentages of surviving cells relative to untreated controls were determined.

MCF-7 (breast carcinoma) = experiment: SRB cytotoxicity assay, 72 h; format: cell-based, human; conditions: Homo sapiens, MCF7; MCF-7, 72 h, cut-off 30 µM; read-out: EC50
Protocol: as §1, §2

[11] = test system: A2780 (ovarian carcinoma); experiment: SRB cytotoxicity assay, 72 h; format: cell-based, human; conditions: Homo sapiens; A2780, 72 h, cut-off 30 µM; read-out: EC50
Protocol: as §1, §2

[12] = test system: FaDu (hypopharyngeal carcinoma); experiment: SRB cytotoxicity assay, 72 h; format: cell-based, human; conditions: Homo sapiens, cut-off 30 µM, read-out: EC50
Protocol: as §1, §2

[13] = test system: A375 (malignant melanoma); experiment: SRB cytotoxicity assay, 72 h; format: cell-based, human; conditions: Homo sapiens, A-375, 72 h, A375, 72 h, cut-off 30 µM; read-out: EC50
Protocol: as §1, §2

[14] = test system: HT29 (colorectal carcinoma); experiment: SRB cytotoxicity assay, 72 h; format: cell-based, human; conditions: Homo sapiens, HT-29; HT29, 72 h, cut-off 30 µM; read-out: EC50
Protocol: as §1, §2

CAKI-1 (Renal cancer) [15] = experiment: NCI-60 screen (SRB, 48 h); conditions: CAKI-1, 1 dose 10 µM
[16] = test system: panel of approximately 60 cancer cell lines; experiment: NCI-60 screen (SRB, 48 h), full panel; conditions: for activity at 10 µM: Homo sapiens, 48 h

For `O=c1[nH]cc(F)c(=O)[nH]1` [Compound 5-FU, 5-fluorouracil], the GI50 (HOP-92 (NSC lung cancer)) is listed as 77900 nM, the GI50 (HCC-2998 (Colon cancer)) is listed as 50 nM and the GI50 (CAKI-1 (Renal cancer) [1]) is listed as 70 nM. For the same compound, the GI50 (SF-539 (CNS cancer)) was 60 nM, the GI50 [2] was 50 nM and the GI50 (MDA-MB-435 (Melanoma)) was 70 nM. For the same compound, the GI50 [3] was 330 nM, the GI50 [4] was 7270 nM and the GI50 (MCF7 (Breast cancer)) was 70 nM. For the same compound, the GI50 (RPMI-8226 (Leukemia)) was 40 nM, the GI50 (MALME-3M (Melanoma)) was 50 nM and the GI50 (SNB-75 (CNS cancer)) was 78700 nM. The GI50 [5] was 6970 nM, the GI50 (OVCAR-3 (Ovarian cancer)) was 10 nM and the GI50 [6] was 54700 nM. For the same compound, the GI50 (HOP-62 (NSC lung cancer)) was 390 nM and the GI50 [7] was 6600 nM.
For `COc1cccc2c1C(=O)c1c(O)c3c(c(O)c1C2=O)C[C@@](O)(C(=O)CO)C[C@@H]3O[C@H]1C[C@H](N)[C@H](O)[C@H](C)O1` [DRB, doxorubicin], the GI50 [8] is given as 50 nM, the GI50 (HOP-92 (NSC lung cancer)) is given as 100 nM and the GI50 (CNS cancer subpanel) is given as 80 nM. For the same compound, the GI50 [9] was 60 nM, the GI50 (ACHN (Renal cancer)) was 80 nM and the GI50 (LOX IMVI (Melanoma)) was 70 nM. The GI50 (SF-268 (CNS cancer)) was 100 nM, the GI50 (SF-295 (CNS cancer)) was 100 nM and the GI50 (A498 (Renal cancer)) was 100 nM. For the same compound, the GI50 (SR (Leukemia)) was 30 nM, the GI50 [2] was 20 nM and the GI50 (RXF 393 (Renal cancer)) was 100 nM. For the same compound, the GI50 (U251 (CNS cancer)) was 40 nM, the GI50 [3] was 150 nM and the GI50 [4] was 30 nM. The GI50 (OVCAR-8 (Ovarian cancer)) was 100 nM, the GI50 (EKVX (NSC lung cancer)) was 410 nM and the GI50 (SN12C (Renal cancer)) was 70 nM. The GI50 (CCRF-CEM (Leukemia)) was 80 nM, the GI50 (SK-MEL-5 (Melanoma)) was 80 nM and the GI50 (MCF7 (Breast cancer)) was 30 nM. For the same compound, the GI50 (RPMI-8226 (Leukemia)) was 80 nM, the GI50 (SW-620 (Colon cancer)) was 90 nM and the GI50 (SNB-75 (CNS cancer)) was 70 nM. The GI50 [5] was 380 nM, the GI50 (T-47D (Breast cancer)) was 60 nM and the GI50 (SNB-19 (CNS cancer)) was 40 nM. The GI50 (Leukemia subpanel) was 80 nM, the GI50 [6] was 50 nM and the GI50 (HCT-116 (Colon cancer)) was 80 nM. For the same compound, the GI50 (HOP-62 (NSC lung cancer)) was 70 nM, the GI50 [7] was 510 nM and the GI50 (MOLT-4 (Leukemia)) was 30 nM.
Compound `C=C(C)[C@@H]1CC[C@]2(C(=O)NC3CCCCC3)CC[C@]3(C)[C@H](CC[C@@H]4[C@@]5(C)CCCNC(C)(C)[C@@H]5CC[C@]43C)[C@@H]12` [Compound 10] has an EC50 [10] of 1500 ± 200 nM, an EC50 (MCF-7 (breast carcinoma)) of 1900 ± 100 nM and an EC50 [11] of 2270 ± 400 nM. For the same compound, the EC50 [12] was 2040 ± 100 nM, the EC50 [13] was 2180 ± 200 nM and the EC50 [14] was 980 ± 100 nM.
Compound `CC1(C)NCCC[C@]2(C)[C@H]3CC(=O)[C@H]4[C@@H]5C[C@@](C)(CO)CC[C@]5(C)CC[C@@]4(C)[C@]3(C)CC[C@@H]12` [Compound 17] has an EC50 [10] of 9870 ± 1300 nM, an EC50 (MCF-7 (breast carcinoma)) of 5550 ± 600 nM and an EC50 [11] of 9190 ± 500 nM. The EC50 [12] was 6360 ± 1800 nM, the EC50 [13] was 6350 ± 500 nM and the EC50 [14] was 5010 ± 800 nM. The “Growth % of the Most Sensitive Cell Lines” value (CAKI-1 (Renal cancer) [15]) was 51.57%, the “Positive Cytostatic Effect (cell lines with percent growth 0 to 50 / total)” value ([16]; 1 dose 10 µM) was 0/59 and the “Positive Cytotoxic Effect (cell lines with percent growth < 0 / total)” value ([16]; 1 dose 10 µM) was 0/59. For the same compound, the “number of cancer cell lines the compound was active against” value ([16]; 1 dose 10 µM) was “complete loss of cytotoxic activity”, the activity at 10 µM ([16]; read-out: Mean Growth, %) was 95.5% and the activity at 10 µM ([16]; read-out: Range of Growth, %) was 51.6 to 118%.
